Measured values published in ChEMBL document CHEMBL4041516, “SAR study of 5-alkynyl substituted quinazolin-4(3H)-ones as phosphoinositide 3-kinase delta (PI3Kδ) inhibitors” (Eur J Med Chem, 2017).
Active and inactive are the calls of the source. The rule behind the calls is not given here.

How the values were obtained:
SU-DHL-6 = experiment: Antiproliferative activity against human SUDHL6 cells measured after 72 hrs by alamar blue assay; format: functional, cell-based; settings: SU-DHL-6, 72 h
KARPAS-422 = experiment: Antiproliferative activity against human KARPAS422 cells measured after 72 hrs by alamar blue assay; format: functional, cell-based; settings: KARPAS-422, 72 h
[1] = Antiproliferative activity against human WSU-DLCL2 cells measured after 72 hrs by alamar blue assay; format: functional, cell-based; settings: WSUDLCL2, 72 h
HT = experiment: Antiproliferative activity against human HT cells measured after 72 hrs by alamar blue assay; format: functional, cell-based
Pfeiffer = experiment: Antiproliferative activity against human Pfeiffer cells measured after 72 hrs by alamar blue assay; format: functional, cell-based
NAMALVA = experiment: Antiproliferative activity against human NAMALWA cells measured after 72 hrs by alamar blue assay; format: functional, cell-based
SU-DHL-1 = experiment: Antiproliferative activity against human SU-DHL1 cells measured after 72 hrs by alamar blue assay; format: functional, cell-based; settings: SU-DHL-1, 72 h
SU-DHL10 = experiment: Antiproliferative activity against human SU-DHL10 cells measured after 72 hrs by alamar blue assay; format: functional, cell-based; settings: SU-DHL10, 72 h
MOLT-4 = experiment: Antiproliferative activity against human MOLT4 cells measured after 72 hrs by alamar blue assay; format: functional, cell-based; settings: MOLT-4, 72 h
[2] = target: T1, Phosphatidylinositol 4,5-bisphosphate 3-kinase catalytic subunit gamma isoform (Homo sapiens, UniProt P48736); experiment: Inhibition of PI3Kgamma (unknown origin) using PIP2 as substrate measured after 30 mins by HTRF assay
T1 sequence (P48736 whole entry, canonical isoform): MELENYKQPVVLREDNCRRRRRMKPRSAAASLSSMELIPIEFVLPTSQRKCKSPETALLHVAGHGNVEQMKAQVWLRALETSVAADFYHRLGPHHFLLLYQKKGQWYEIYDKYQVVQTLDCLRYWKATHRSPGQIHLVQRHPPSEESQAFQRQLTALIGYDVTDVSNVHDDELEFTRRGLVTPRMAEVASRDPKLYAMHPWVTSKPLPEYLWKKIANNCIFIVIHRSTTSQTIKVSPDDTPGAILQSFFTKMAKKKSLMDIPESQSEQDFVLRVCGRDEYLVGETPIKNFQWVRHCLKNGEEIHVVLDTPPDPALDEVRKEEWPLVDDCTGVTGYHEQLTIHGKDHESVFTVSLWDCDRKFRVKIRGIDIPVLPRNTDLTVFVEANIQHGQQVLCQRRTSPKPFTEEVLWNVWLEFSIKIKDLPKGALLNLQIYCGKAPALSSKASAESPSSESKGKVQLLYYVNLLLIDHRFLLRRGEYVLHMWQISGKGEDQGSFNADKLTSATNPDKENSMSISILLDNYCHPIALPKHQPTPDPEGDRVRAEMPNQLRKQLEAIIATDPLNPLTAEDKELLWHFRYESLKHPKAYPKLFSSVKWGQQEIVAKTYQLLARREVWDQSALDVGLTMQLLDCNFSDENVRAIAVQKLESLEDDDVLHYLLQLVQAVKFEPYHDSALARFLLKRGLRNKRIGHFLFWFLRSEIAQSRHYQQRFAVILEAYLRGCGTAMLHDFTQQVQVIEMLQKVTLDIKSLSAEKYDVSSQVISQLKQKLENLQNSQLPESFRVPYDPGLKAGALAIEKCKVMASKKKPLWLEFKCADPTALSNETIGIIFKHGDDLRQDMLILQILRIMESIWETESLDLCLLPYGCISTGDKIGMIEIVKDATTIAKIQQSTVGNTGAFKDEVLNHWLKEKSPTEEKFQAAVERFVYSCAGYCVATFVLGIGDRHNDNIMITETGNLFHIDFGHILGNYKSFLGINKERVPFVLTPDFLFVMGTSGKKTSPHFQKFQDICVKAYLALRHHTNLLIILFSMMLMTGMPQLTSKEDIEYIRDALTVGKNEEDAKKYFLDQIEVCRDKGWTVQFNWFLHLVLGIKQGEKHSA

[3] = target: T2, Phosphatidylinositol 4,5-bisphosphate 3-kinase catalytic subunit delta isoform (Homo sapiens, UniProt O00329); experiment: Inhibition of PI3Kdelta (unknown origin) using PIP2 as substrate measured after 30 mins by HTRF assay
T2 sequence (O00329 whole entry): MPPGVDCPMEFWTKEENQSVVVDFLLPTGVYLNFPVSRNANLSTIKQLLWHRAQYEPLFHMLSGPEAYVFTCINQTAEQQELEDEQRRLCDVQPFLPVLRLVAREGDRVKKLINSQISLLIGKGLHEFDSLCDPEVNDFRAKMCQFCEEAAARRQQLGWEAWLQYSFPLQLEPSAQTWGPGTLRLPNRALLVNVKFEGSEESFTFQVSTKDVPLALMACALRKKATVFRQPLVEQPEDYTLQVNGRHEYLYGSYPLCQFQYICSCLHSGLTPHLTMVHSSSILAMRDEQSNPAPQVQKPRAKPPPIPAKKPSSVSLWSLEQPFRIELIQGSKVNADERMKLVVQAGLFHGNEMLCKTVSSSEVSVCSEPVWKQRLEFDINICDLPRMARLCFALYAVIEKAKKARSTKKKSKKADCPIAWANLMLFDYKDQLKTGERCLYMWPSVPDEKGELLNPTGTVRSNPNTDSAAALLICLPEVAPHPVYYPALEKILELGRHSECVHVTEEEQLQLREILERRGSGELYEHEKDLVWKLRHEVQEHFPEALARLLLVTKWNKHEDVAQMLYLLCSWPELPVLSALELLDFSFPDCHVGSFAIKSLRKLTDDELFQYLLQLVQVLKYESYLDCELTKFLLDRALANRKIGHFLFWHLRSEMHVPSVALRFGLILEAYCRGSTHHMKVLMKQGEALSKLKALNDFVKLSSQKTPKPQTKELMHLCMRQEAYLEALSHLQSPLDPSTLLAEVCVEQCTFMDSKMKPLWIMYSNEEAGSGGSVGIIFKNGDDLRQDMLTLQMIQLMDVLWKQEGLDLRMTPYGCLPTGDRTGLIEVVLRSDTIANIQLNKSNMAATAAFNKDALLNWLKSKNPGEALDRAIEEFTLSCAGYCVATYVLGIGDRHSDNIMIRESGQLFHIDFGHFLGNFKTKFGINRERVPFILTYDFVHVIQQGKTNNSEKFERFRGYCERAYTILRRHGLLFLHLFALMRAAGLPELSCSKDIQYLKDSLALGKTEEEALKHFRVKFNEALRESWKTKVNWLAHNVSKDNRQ

[4] = target: T3, Phosphatidylinositol 4,5-bisphosphate 3-kinase catalytic subunit alpha isoform (Homo sapiens, UniProt P42336); experiment: Inhibition of PI3Kalpha (unknown origin) using PIP2 as substrate measured after 30 mins by HTRF assay
T3 sequence (P42336 whole entry, canonical isoform): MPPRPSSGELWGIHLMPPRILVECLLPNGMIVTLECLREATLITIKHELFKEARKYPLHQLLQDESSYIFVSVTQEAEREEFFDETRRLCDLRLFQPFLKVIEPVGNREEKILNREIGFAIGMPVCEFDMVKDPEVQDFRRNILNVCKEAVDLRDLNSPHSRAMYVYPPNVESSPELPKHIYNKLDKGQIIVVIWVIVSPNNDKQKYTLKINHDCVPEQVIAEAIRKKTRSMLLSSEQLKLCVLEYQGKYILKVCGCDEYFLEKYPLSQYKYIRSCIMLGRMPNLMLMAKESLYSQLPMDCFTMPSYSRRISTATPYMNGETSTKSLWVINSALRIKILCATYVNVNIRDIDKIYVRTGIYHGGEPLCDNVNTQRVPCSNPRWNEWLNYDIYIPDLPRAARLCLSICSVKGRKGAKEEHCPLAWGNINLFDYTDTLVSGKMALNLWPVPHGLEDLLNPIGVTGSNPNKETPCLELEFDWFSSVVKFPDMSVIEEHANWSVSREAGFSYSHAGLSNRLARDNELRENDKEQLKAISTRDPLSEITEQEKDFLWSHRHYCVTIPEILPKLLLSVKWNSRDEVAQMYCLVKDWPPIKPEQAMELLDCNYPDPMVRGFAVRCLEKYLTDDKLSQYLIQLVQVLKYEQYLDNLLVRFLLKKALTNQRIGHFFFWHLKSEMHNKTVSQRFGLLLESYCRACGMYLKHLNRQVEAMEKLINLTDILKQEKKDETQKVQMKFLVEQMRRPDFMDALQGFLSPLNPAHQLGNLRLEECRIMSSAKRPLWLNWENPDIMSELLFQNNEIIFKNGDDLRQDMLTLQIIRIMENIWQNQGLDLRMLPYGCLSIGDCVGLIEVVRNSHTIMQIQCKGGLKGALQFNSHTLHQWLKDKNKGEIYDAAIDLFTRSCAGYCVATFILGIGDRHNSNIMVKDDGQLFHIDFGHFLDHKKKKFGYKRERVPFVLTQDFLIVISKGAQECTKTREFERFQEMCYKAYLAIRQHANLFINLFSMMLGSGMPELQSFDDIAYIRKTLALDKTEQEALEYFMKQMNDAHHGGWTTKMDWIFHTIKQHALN

[5] = target: Phosphatidylinositol 4,5-bisphosphate 3-kinase catalytic subunit beta isoform (Homo sapiens, UniProt P42338); experiment: Inhibition of PI3Kbeta (unknown origin) using PIP2 as substrate measured after 30 mins by HTRF assay
SUD4 = experiment: Antiproliferative activity against human SU-DHL4 cells measured after 72 hrs by alamar blue assay; format: functional, cell-based; settings: SU-DHL-4, 72 h
[6] = target: T4, Voltage-gated inwardly rectifying potassium channel KCNH2 (Homo sapiens, UniProt Q12809); experiment: Inhibition of human ERG
T4 sequence (Q12809 whole entry): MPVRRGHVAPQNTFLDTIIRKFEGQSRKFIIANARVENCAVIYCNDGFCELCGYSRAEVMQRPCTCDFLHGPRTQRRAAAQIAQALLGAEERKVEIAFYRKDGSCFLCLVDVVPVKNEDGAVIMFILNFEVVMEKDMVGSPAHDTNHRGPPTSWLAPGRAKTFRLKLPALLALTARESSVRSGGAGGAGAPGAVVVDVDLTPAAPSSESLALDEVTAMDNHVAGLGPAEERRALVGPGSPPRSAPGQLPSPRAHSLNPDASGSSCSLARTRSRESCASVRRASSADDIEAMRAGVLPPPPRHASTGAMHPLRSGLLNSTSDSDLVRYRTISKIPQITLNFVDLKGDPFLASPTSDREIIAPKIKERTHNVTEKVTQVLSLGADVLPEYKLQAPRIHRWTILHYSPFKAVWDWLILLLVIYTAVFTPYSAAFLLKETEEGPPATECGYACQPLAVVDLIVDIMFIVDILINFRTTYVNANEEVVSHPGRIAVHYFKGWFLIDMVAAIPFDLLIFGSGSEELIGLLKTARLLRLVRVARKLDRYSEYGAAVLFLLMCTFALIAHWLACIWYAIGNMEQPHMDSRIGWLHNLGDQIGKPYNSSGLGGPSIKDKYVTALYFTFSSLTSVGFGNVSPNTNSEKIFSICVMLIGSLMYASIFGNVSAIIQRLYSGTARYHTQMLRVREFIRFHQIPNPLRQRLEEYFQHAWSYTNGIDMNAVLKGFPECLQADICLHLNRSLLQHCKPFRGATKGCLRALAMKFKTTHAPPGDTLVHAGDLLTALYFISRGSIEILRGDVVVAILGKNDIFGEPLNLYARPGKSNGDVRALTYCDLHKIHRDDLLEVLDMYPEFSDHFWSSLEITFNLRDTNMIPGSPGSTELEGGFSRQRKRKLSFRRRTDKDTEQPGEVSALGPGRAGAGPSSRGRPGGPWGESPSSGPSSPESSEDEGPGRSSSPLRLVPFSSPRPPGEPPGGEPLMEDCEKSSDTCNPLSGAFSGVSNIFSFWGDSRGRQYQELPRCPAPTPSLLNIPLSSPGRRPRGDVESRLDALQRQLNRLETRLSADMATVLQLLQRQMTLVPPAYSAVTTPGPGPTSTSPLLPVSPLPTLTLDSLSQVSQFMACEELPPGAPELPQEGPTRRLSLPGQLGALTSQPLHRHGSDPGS

hERG (KCNH2) = hERG (KCNH2) (Homo sapiens, UniProt Q12809); experiment: (§1) Inhibition of human ERG at 40 uM relative to control
Chain of hERG (KCNH2) (Q12809 whole entry, canonical isoform): as the sequence (Q12809 whole entry) above

[7] = target: T2, Phosphatidylinositol 4,5-bisphosphate 3-kinase catalytic subunit delta isoform; experiment: Inhibition of PI3Kdelta (unknown origin) using biotinylated PIP2 as substrate after 2 hrs by TR-FRET assay
U-937 = experiment: Inhibition of phorbol 12-myristate 13-acetate-induced peroxide production in human U937 cells; format: functional, cell-based
[8] = target: T3, Phosphatidylinositol 4,5-bisphosphate 3-kinase catalytic subunit alpha isoform; experiment: Inhibition of PI3Kalpha (unknown origin) using biotinylated PIP2 as substrate after 2 hrs by TR-FRET assay
[9] = target: T1, Phosphatidylinositol 4,5-bisphosphate 3-kinase catalytic subunit gamma isoform; experiment: Inhibition of PI3Kgamma (unknown origin) using biotinylated PIP2 as substrate after 2 hrs by TR-FRET assay
[10] = target: T5, Phosphatidylinositol 4,5-bisphosphate 3-kinase catalytic subunit delta isoform (Homo sapiens) (UniProt O00329); experiment: Inhibition of PI3Kdelta-mediated Akt phosphorylation at […] in human SUDHL6 cells measured after 1 hr by Western blot analysis; format: cell-based
T5 sequence (whole entry): T2 sequence (O00329 whole entry)

[11] = target: T5, Phosphatidylinositol 4,5-bisphosphate 3-kinase catalytic subunit delta isoform (Homo sapiens); experiment: Inhibition of PI3Kdelta-mediated Akt phosphorylation at […] in human MOLT4 cells measured after 1 hr by Western blot analysis; format: cell-based
[12] = target: T5, Phosphatidylinositol 4,5-bisphosphate 3-kinase catalytic subunit delta isoform (Homo sapiens); experiment: Inhibition of PI3Kdelta-mediated S6k1 phosphorylation at T389 in human SUDHL6 cells measured after 1 hr by Western blot analysis; format: cell-based
[13] = target: T5, Phosphatidylinositol 4,5-bisphosphate 3-kinase catalytic subunit delta isoform (Homo sapiens); experiment: Inhibition of PI3Kdelta-mediated S6k1 phosphorylation at T389 in human MOLT4 cells measured after 1 hr by Western blot analysis; format: cell-based
[14] = target: T5, Phosphatidylinositol 4,5-bisphosphate 3-kinase catalytic subunit delta isoform (Homo sapiens); experiment: Inhibition of PI3Kdelta-mediated Akt phosphorylation in human SUDHL6 cells at 3 nM measured after 1 hr by Western blot analysis; format: cell-based
[15] = Half life in Sprague-Dawley rat at 10 mg/kg, po; format: ADME, organism-based; settings: in vivo
[16] = AUClast in Sprague-Dawley rat at 10 mg/kg, po; format: ADME, organism-based; parameters: dose 10 mg/kg, time 0 - last, route oral; settings: in vivo
[17] = AUC (infinity) in Sprague-Dawley rat at 10 mg/kg, po; format: ADME, organism-based; parameters: dose 10 mg/kg, route oral, time infinity; settings: in vivo
[18] = Oral bioavailability in Sprague-Dawley rat at 10 mg/kg; format: ADME, organism-based; settings: in vivo
[19] = Half life in Sprague-Dawley rat at 5 mg/kg, iv; format: ADME, organism-based; settings: in vivo
[20] = AUClast in Sprague-Dawley rat at 5 mg/kg, iv; format: ADME, organism-based; parameters: dose 5 mg/kg, time 0 - last, route intravenous; settings: in vivo
Rattus norvegicus = experiment: AUC (infinity) in Sprague-Dawley rat at 5 mg/kg, iv; format: ADME, organism-based; parameters: dose 5 mg/kg, time infinity, route intravenous; settings: in vivo
[21] = Volume of distribution in Sprague-Dawley rat at 5 mg/kg, iv; format: ADME, organism-based; settings: in vivo
[22] = target: T4, Voltage-gated inwardly rectifying potassium channel KCNH2; experiment: as §1; settings: 40 µM

Compound	IC50 (SU-DHL-6) [nM]	IC50 (KARPAS-422) [nM]	IC50 [1] [nM]	IC50 (HT) [nM]	IC50 (Pfeiffer) [nM]	IC50 (NAMALVA) [nM]	IC50 (SU-DHL-1) [nM]	IC50 (SU-DHL10) [nM]	IC50 (MOLT-4) [nM]	IC50 [3] [nM]	also measured
CC[C@H](Nc1ncnc2[nH]cnc12)c1nc2cccc(F)c2c(=O)n1-c1ccccc1 [IDELALISIB]	118	8100	> 10000	> 10000	6800	> 10000	> 10000	> 10000	> 10000		
N#Cc1c(N)ncnc1N1CCC[C@H]1c1nc2cccc(C#CCCCC(=O)N3CCOCC3)c2c(=O)n1-c1ccccc1	27.6	11600	> 10000	> 10000	7200	6000	> 10000	2400	> 10000	13.8	IC50 [2]: 291 nM; IC50 [4]: 3110 nM; IC50 [5]: 1650 nM; IC50 (SUD4): 3900 nM; IC50 ([6]; read-out: IC50): 31700 nM; inhibition at 40 µM (hERG (KCNH2)): 61.9%
COCCOCCNC(=O)CCCC#Cc1cccc2nc(Cn3nc(-c4cccc(O)c4)c4c(N)ncnc43)n(Cc3ccccc3Cl)c(=O)c12											IC50 [7]: 3 to 12 nM; IC50 (U-937): 1.1 nM; IC50 [8]: 1490 nM; IC50 [9]: 47 nM
CC(C)(CO)N1CCN(CC#Cc2cccc3nc([C@@H]4CCCN4c4ncnc(N)c4C#N)n(-c4ccccc4)c(=O)c23)CC1	339									67.1	
CC[C@H](Nc1nc(N)nc(N)c1C#N)c1nc2cccc(C#CCCCC(=O)N3CCOCC3)c2c(=O)n1-c1ccccc1	7.6	2000	5700	4900	1400	3300	5600	1900	2400	3.82	IC50 [2]: 91.9 nM; IC50 [4]: 591 nM; IC50 [5]: 509 nM; inhibition [10]: Dose-dependent effect; inhibition [11]: Dose-dependent effect; inhibition [12]: Dose-dependent effect; inhibition [13]: Dose-dependent effect; inhibition [14]: Active; IC50 (SUD4): 1600 nM; IC50 ([6]; read-out: IC50): > 40000 nM; inhibition at 40 µM (hERG (KCNH2)): 34.1%; half-life [15]: 1.46 h; AUC(0-t) [16]: 938 ng·h/mL; AUC(0-inf) [17]: 958 ng·h/mL; bioavailability [18]: 29.7%; half-life [19]: 1.28 h; AUC(0-t) [20]: 1050 ng·h/mL; AUC (Rattus norvegicus): 1057 ng·h/mL; Vd [21]: 0.545 L/kg
CC[C@H](Nc1ncnc2[nH]cnc12)c1nc2cccc(C#CCCCC(=O)N3CCOCC3)c2c(=O)n1-c1ccccc1	1180									110	
CC(C)(C)N1CCN(CC#Cc2cccc3nc([C@@H]4CCCN4c4ncnc(N)c4C#N)n(-c4ccccc4)c(=O)c23)CC1	282									43	
N#Cc1c(N)ncnc1N1CCC[C@H]1c1nc2cccc(C#CCN3CCC(C4CC(F)(F)C4)CC3)c2c(=O)n1-c1ccccc1	724									141	
CC(C)N1CCN(Cc2cnc(C#Cc3cccc4nc([C@@H]5CCCN5c5ncnc(N)c5C#N)n(-c5ccccc5)c(=O)c34)s2)CC1	1150									> 300	
N#Cc1c(N)ncnc1N1CCC[C@H]1c1nc2cccc(C#Cc3cccs3)c2c(=O)n1-c1ccccc1	1680									41.5	
CC[C@H](Nc1ncnc(N)c1C#N)c1nc2cccc(C#CCCCC(=O)N3CCOCC3)c2c(=O)n1-c1ccccc1	1430									96.8	
CC[C@H](Nc1nc(N)nc(N)c1C#N)c1nc2cccc(C#CCCCC(=O)N3CCCC3)c2c(=O)n1-c1ccccc1	37.2	2100	6800	7900	2200	6200	4900	1800	6700	6.73	IC50 [2]: 125 nM; IC50 [4]: 624 nM; IC50 [5]: 530 nM; IC50 (SUD4): 1700 nM; IC50 ([6]; read-out: IC50): > 40000 nM; inhibition at 40 µM (hERG (KCNH2)): 39.3%
N#Cc1c(N)ncnc1N1CCC[C@H]1c1nc2cccc(C#CCN3CCN(CC4CC4)CC3)c2c(=O)n1-c1ccccc1	705									107	
Cc1nc(N)nc(N2CCC[C@H]2c2nc3cccc(C#CCCCC(=O)N4CCCC4)c3c(=O)n2-c2ccccc2)c1C#N	58.9	4300	> 10000	> 10000	4400	5900	> 10000	4500	6700	7.1	IC50 [2]: 132 nM; IC50 [4]: 1480 nM; IC50 [5]: 2020 nM; IC50 (SUD4): 4000 nM; IC50 [6]: Nd(Insoluble); inhibition (INH) [22]: Nd(Insoluble)
